Data set [1] in a line: Stability of nBTPT on urea blended with DAP, bagged storage at 20° C., HPLC analysis of nBTPT content. The data set is classed as physicochemical. Particulars: 2500 ppm added; 900 ppm nBTPT as Agrotain Ultra on urea blended with DAP 1:1; 14 days bagged storage at 20° C. How it is done:
(§1) For lab scale experiments, nBTPT was applied onto urea by adding 1.2 kg of urea-based compound to a lab scale drum. In a next step, the nBTPT material was slowly added. A residence time of 10 minutes was applied and the rotating speed of the drum was consequently the same in each experiment. In case a moisture repellent coating was added, a nebulizer was used and depending on the order of addition, the moisture repellent coating was added before or after addition of the nBTPT material. Before use, the moisture repellent coating was preheated to 80° C. Larger scale experiments with amounts up to 40 kg of fertilizer material were performed in a concrete mixer.
(§2) In a next step, one or more reactive alkaline or alkaline-forming inorganic or organic compounds that is able to interact with the one or more components selected from the group of nitrates, phosphates, sulphates and chlorides was added;
(§3) In a next step, a particulate material, comprising one or more components selected from the group of nitrates, phosphates, sulphates and chlorides was added;
(§4) All the components were mixed thoroughly.
Optionally, a coating to one or more of the particulate components that is able to increase at least the anti-caking and/or water repellent properties of said urea-based blend composition was added. Importantly, all the steps can be interchanged or the steps can be performed simultaneously.
(§5) The samples were stored under several conditions, dependent on the type of samples: • 20° C. closed plastic container with head space (Climate chamber, 80% relative humidity) • Bagged at room temperature (20-25° C.) or in nissenhut (an unconditioned bulk hall) • Open to air in nissenhut • Cylinder test in nissenhut • Open pile in nissenhut
(§6) HPLC analysis of nBTPT is done as described in the procedure CEN 15688-2007.
(§7) In practice, the urea-based compound treated with nBTPT was picked and separated manually from the particulate material, comprising one or more components selected from the group of nitrates, phosphates, sulphates and chlorides, and then subsequently dissolved in water for HPLC analysis.
Coating: Moisture repellent (MR) coating was made according to EP 0768993 A1 (Norsk Hydro ASA) by mixing about 28 weight % of wax, about 68 weight % of oil and about 4 weight % of a resin, applied in an amount of about 0.1-0.5% weight % to the fertilizer. It will be referred herein as NH coating.

The nature of data set [2]: Stability of nBTPT in/on urea blends, storage open to air in jars in nissenhut, HPLC analysis of nBTPT content. Conditions: for effect of addition on the stability of nBTPT: 2650 ppm added, 14 days open to air in jars at nissenhut; for stability of nBTPT (degradation): 35 days open to air in jars in nissenhut. The class given is physicochemical. How it is done:
nBTPT was mixed in urea in the following way: nBTPT was added to urea melt and subsequently this mixture was granulated in a fluidized bed granulator.
as §1, §2, §3, §4, §5
(§8) Typically, a day/night cycle is generated in the nissenhut, with temperature fluctuations between 0 to 42° C. and fluctuations of relative humidity between 20 and 90%, which can be compared with real life storage in silos.
as §6, §7

The nature of data set [3]: Stability of nBTPT in/on urea:AS blend, bagged versus open to air storage in nissenhut. The class given is physicochemical. Conditions: 500 ppm nBTPT in/on urea blended with granular AS 1:1; 35 days in nissenhut. The method, then:
FIG. 8. Stability of different nBTPT formulations (500 ppm) in and on urea in a blend with granular AS: bagged versus open to air storage-% recovery of nBTPT after 35 days of storage in nissenhut (day/night cycle 16-42° C./27-77% relative humidity). • A=[500 ppm nBTPT powder in urea]+AS 1:1 • B=[500 ppm nBTPT powder on urea]+AS 1:1 • C=[500 ppm nBTPT as Agrotain® Ultra in urea]+AS 1:1 • D=[500 ppm nBTPT as Agrotain® Ultra on urea]+AS 1:1
as §5, §8, §6, §7

Data set [4] is classed as physicochemical. An excerpt: With regard to the activity of the reactive alkaline or alkaline-forming inorganic or organic compounds, without being bound by theory, it is hypothesised that the reactive alkaline or alkaline-forming inorganic or organic compound neutralises the released phosphoric acid which is formed during decomposition of the urease inhibitor of the type phosphoric triamide in view of the fact that the decomposition of the urease inhibitor of the type phosphoric triamide is acid-catalysed. As such, the decomposition of the urease inhibitor of the type phosphoric triamide is slowed down. Furthermore, the stabilizer has the ability to immobilize the nitrates, phosphates, sulphates and chlorides and/or to convert the nitrates, phosphates, sulphates and chlorides into a form which is less reactive with the urease inhibitor of the type phosphoric triamide. For example, calcium oxide may react with ammonium sulphate in the presence of water, which is always present in small amounts in urea, to form calcium sulphate, which is nearly insoluble in an aqueous environment, such as a soil.

In the case of `[O]=[Ca]` [CaO, calcium oxide], the “effect of addition on the stability of nBTPT” value (shortened to “effect of addition”) in data set [1] was “beneficial effect”; in data set [2] (500 ppm nBTPT powder in or on urea blended with DAP and KCl triple 19) it was “beneficial effect”; in data set [2] (500 ppm nBTPT powder in or on urea blended with granular AS 1:1), “beneficial effect”.

Consider `O=C([O-])[O-].[Ca+2]` [CaCO3, calcium carbonate], for which, in data set [1], the “effect of addition” value was “beneficial effect”.

`OCCNCCO` [diethanolamine]: the “effect of addition” value in data set [1] is listed as “beneficial effect”.

As for `[O]=[Mg]` [MgO, magnesium oxide], the “effect of addition” value in data set [1] was “beneficial effect”.

In the case of `CCCCNP(N)(N)=S` [nBTPT, N-(n-butyl) thiophosphoric triamide], the “effect of bagged storage versus open to air storage on stability of nBTPT” value in data set [3] was “beneficial effect of bagged storage”. Moreover, the “stability of nBTPT (degradation)” value in data set [2] (liquid nBTPT formulations in and on urea (500 ppm) blended with granular AS 1:1, 16-42° C./27-77% relative humidity) was “degrades very fast”; in data set [2] (nBTPT formulations in and on urea (500 ppm) blended with DAP and KCl, triple 19 ratio) it was “degrades very dramatically”; in data set [2] (solid nBTPT in and on urea (500 ppm) blended with DAP 1:1), “degrades very fast”; in data set [2] (solid nBTPT in and on urea (500 ppm) blended with KCl 1:1), “degrades very fast”.

Turning to `[O]=[Zn]` [ZnO, zinc oxide], in data set [1], the “effect of addition” value is recorded as “beneficial effect”.

With talc, the “stabilizing effect on nBTPT” value in data set [4] is given as “no stabilizing effect”.

As to `CCN(CC)CC` [triethylamine], in data set [1], the “effect of addition” value is on record as “beneficial effect”.

The values above are taken from patent US11072567B2, “Urea-based blend composition and method for the manufacture thereof” (YARA INTERNATIONAL ASA, priority 2015, dated 2021).
